Like-named read-outs stand apart in the source and are kept apart here.
Biological target: interaction between the AnxA2 N-terminus and S100A10 (Homo sapiens, UniProt P60903)
Experiment: Fluorescence screening assay (FRET competitive binding, Cy3-AnxA2(Ac1–14) peptide / Cy5-S100A10)
Conditions: for IC50 / pIC50 ± SE: FRET assay, 12 observations
Protocol: Assessment of compound activity was performed as described.[35] Briefly, a Cy5-labelled S100A10 tracer was developed and binding of a Cy3-labelled AnxA2(Ac1–14) peptide ligand was assessed using a fluorescence resonance energy transfer readout. Assays were carried out in Nunc black non-treated 384-well plates at 20 °C in 50 μL buffer C. All incubations were performed in quadruplicate. Compounds, peptide and buffer controls were added to the wells in a 10 μL volume in 5% DMSO. Cy5-labelled S100A10 tracer (407 nM) and Cy3-labelled AnxA2(Ac1–14) peptide ligand (1.33 μM) were pre-incubated for 5 min at 20 °C and 40 μL of the preformed complex was then added to the wells and mixed for 10 s to yield a final DMSO concentration of 1%. After 5 min incubation at 20 °C, readings were taken on a Perkin Elmer Envision plate reader by excitation at 488 nm and emission at 695 nm. Fluorescence resonance energy transfer (FRET) was calculated by subtracting the sum of the fluorescence emission of S100A10-Cy5 and AA2(1–14)-Cy3 individually from that measured for the co-incubated partners. Compound binding was calculated as percentage of non-treated control and data were analysed by non-linear regression (dose response—variable slope with bottom and top parameters fixed at 0% and 100%, respectively) using Graphpad Prism Software to determine the IC50 of binding (primary assay).

[1] = Table 1, read-out: pIC50 ± SE (converted)

Sequence of interaction between the AnxA2 N-terminus and S100A10 (P60903 whole entry, species assumed): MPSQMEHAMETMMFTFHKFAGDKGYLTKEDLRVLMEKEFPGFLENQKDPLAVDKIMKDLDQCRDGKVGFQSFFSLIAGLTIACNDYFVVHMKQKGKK

| IC50 (Table 1, read-out: IC50) | pIC50 ± SE (Table 1) | pIC50 ± SE (Table 2) | IC50 (Table 2, read-out: IC50) | SMILES | other results |
| --- | --- | --- | --- | --- | --- |
| 37 µM | – | – | – | Cc1ccc(C)c(NC(=O)CSc2nnc(CSc3nc(C)cc(C)n3)n2Cc2ccco2)c1 [Compound 1a, N-(2,5-Dimethyl-phenyl)-2-[5-(4,6-dimethyl-pyrimidin-2-ylsulfanylmethyl)-4-furan-2-ylmethyl-4H-[1,2,4]triazol-3-ylsulfanyl]-acetamide] | IC50 [1]: 38 µM |
| 53 µM | – | – | – | Cc1nnc(NC(=O)CSc2nnc(Cc3ccccc3)n2Cc2ccccc2)s1 [Compound 1b] | – |
| 108 µM | – | – | – | COc1ccc(OCc2nnc(SC(C)C(=O)Nc3nccs3)n2-c2ccccc2)cc1 (stereo not drawn) [Compound 1c] | IC50 [1]: 110 µM |
| 103 µM | – | – | – | CCCCn1c(SCC(=O)Nc2cccc(C)n2)nnc1-c1ccco1 [Compound 1d] | IC50 [1]: 105 µM |
| 178 µM | 3.75 ± 0.15 | – | – | Cc1cc(C)nc(SCc2nnc(SCC(N)=O)n2Cc2ccco2)n1 [Compound 27, 2-[5-(4,6-Dimethyl-pyrimidin-2-ylsulfanylmethyl)-4-furan-2-ylmethyl-4H-[1,2,4]triazol-3-ylsulfanyl]-acetamide] | – |
| 129 µM | 3.89 ± 0.06 | – | – | Cc1cc(C)nc(SCc2nnc(SCC(=O)Nc3nccs3)n2Cc2ccco2)n1 [Compound 28, 2-[5-(4,6-Dimethyl-pyrimidin-2-ylsulfanylmethyl)-4-furan-2-ylmethyl-4H-[1,2,4]triazol-3-ylsulfanyl]-N-thiazol-2-yl-acetamide] | – |
| 30 µM | 4.53 ± 0.06 | – | – | Cc1cc(C)nc(SCc2nnc(SCC(=O)Nc3nc(C)cs3)n2Cc2ccco2)n1 [Compound 29, 2-[5-(4,6-Dimethyl-pyrimidin-2-ylsulfanylmethyl)-4-furan-2-ylmethyl-4H-[1,2,4]triazol-3-ylsulfanyl]-N-(4-methyl-thiazol-2-yl)-acetamide] | – |
| 43 µM | 4.37 ± 0.07 | – | – | Cc1cc(C)nc(SCc2nnc(SCC(=O)Nc3cc(C)on3)n2Cc2ccco2)n1 [Compound 30, 2-[5-(4,6-Dimethyl-pyrimidin-2-ylsulfanylmethyl)-4-furan-2-ylmethyl-4H-[1,2,4]triazol-3-ylsulfanyl]-N-(5-methyl-isoxazol-3-yl)-acetamide] | – |
| 23 µM | 4.63 ± 0.04 | – | – | Cc1cc(C)nc(SCc2nnc(SCC(=O)Nc3ccccc3)n2Cc2ccco2)n1 [Compound 31, 2-[5-(4,6-Dimethyl-pyrimidin-2-ylsulfanylmethyl)-4-furan-2-ylmethyl-4H-[1,2,4]triazol-3-ylsulfanyl]-N-phenyl-acetamide] | – |
| 13 µM | 4.89 ± 0.04 | – | – | Cc1cccc(NC(=O)CSc2nnc(CSc3nc(C)cc(C)n3)n2Cc2ccco2)c1 [Compound 32, 2-[5-(4,6-Dimethyl-pyrimidin-2-ylsulfanylmethyl)-4-furan-2-ylmethyl-4H-[1,2,4]triazol-3-ylsulfanyl]-N-m-tolyl-acetamide] | – |
| 11 µM | 4.96 ± 0.04 | – | – | Cc1ccc(NC(=O)CSc2nnc(CSc3nc(C)cc(C)n3)n2Cc2ccco2)cc1 [Compound 33, 2-[5-(4,6-Dimethyl-pyrimidin-2-ylsulfanylmethyl)-4-furan-2-ylmethyl-4H-[1,2,4]triazol-3-ylsulfanyl]-N-p-tolyl-acetamide] | – |
| 15 µM | 4.83 ± 0.04 | – | – | Cc1ccc(NC(=O)CSc2nnc(CSc3nc(C)cc(C)n3)n2Cc2ccco2)c(C)c1 [Compound 34, N-(2,4-Dimethyl-phenyl)-2-[5-(4,6-dimethyl-pyrimidin-2-ylsulfanylmethyl)-4-furan-2-ylmethyl-4H-[1,2,4]triazol-3-ylsulfanyl]-acetamide] | – |
| 10 µM | 5.02 ± 0.04 | – | – | Cc1cc(C)nc(SCc2nnc(SCC(=O)Nc3ccc(C)c(C)c3)n2Cc2ccco2)n1 [Compound 35, N-(3,4-Dimethyl-phenyl)-2-[5-(4,6-dimethyl-pyrimidin-2-ylsulfanylmethyl)-4-furan-2-ylmethyl-4H-[1,2,4]triazol-3-ylsulfanyl]-acetamide] | – |
| 28 µM | 4.55 ± 0.07 | – | – | Cc1cc(C)nc(SCc2nnc(SCC(=O)Nc3ccc(C(F)(F)F)cc3)n2Cc2ccco2)n1 [Compound 37, 2-[5-(4,6-Dimethyl-pyrimidin-2-ylsulfanylmethyl)-4-furan-2-ylmethyl-4H-[1,2,4]triazol-3-ylsulfanyl]-N-(4-trifluoromethyl-phenyl)-acetamide] | – |
| 9 µM | 5.05 ± 0.03 | – | – | Cc1cc(C)nc(SCc2nnc(SCC(=O)Nc3cc(C(F)(F)F)cc(C(F)(F)F)c3)n2Cc2ccco2)n1 [Compound 38, N-(3,5-Bis-trifluoromethyl-phenyl)-2-[5-(4,6-dimethyl-pyrimidin-2-ylsulfanylmethyl)-4-furan-2-ylmethyl-4H-[1,2,4]triazol-3-ylsulfanyl]-acetamide] | – |
| 17 µM | 4.76 ± 0.03 | – | – | Cc1cc(C)nc(SCc2nnc(SCC(=O)Nc3ccc(Cl)cc3)n2Cc2ccco2)n1 [Compound 39, N-(4-Chloro-phenyl)-2-[5-(4,6-dimethyl-pyrimidin-2-ylsulfanylmethyl)-4-furan-2-ylmethyl-4H-[1,2,4]triazol-3-ylsulfanyl]-acetamide] | – |
| 7 µM | 5.14 ± 0.03 | – | – | Cc1cc(C)nc(SCc2nnc(SCC(=O)Nc3ccc(Br)cc3)n2Cc2ccco2)n1 [Compound 40, N-(4-Bromo-phenyl)-2-[5-(4,6-dimethyl-pyrimidin-2-ylsulfanylmethyl)-4-furan-2-ylmethyl-4H-[1,2,4]triazol-3-ylsulfanyl]-acetamide] | fold increase in potency compared to initial hit compound 1a (relative to 1a): 5 fold |
| – | – | 4.56 ± 0.03 | 27 µM | C=CCn1c(CSc2nc(C)cc(C)n2)nnc1SCC(=O)Nc1ccc(C)c(C)c1 [Compound 41, 2-[4-Allyl-5-(4,6-dimethyl-pyrimidin-2-ylsulfanylmethyl)-4H-[1,2,4]triazol-3-ylsulfanyl]-N-(3,4-dimethyl-phenyl)-acetamide] | – |
| – | – | 4.49 ± 0.04 | 32 µM | COCCCn1c(CSc2nc(C)cc(C)n2)nnc1SCC(=O)Nc1ccc(C)c(C)c1 [Compound 42, N-(3,4-Dimethyl-phenyl)-2-[5-(4,6-dimethyl-pyrimidin-2-ylsulfanylmethyl)-4-(3-methoxy-propyl)-4H-[1,2,4]triazol-3-ylsulfanyl]-acetamide] | – |
| – | – | 4.29 ± 0.09 | 52 µM | COc1ccc(-n2c(CSc3nc(C)cc(C)n3)nnc2SCC(=O)Nc2ccc(C)c(C)c2)cc1 [Compound 43, N-(3,4-Dimethyl-phenyl)-2-[5-(4,6-dimethyl-pyrimidin-2-ylsulfanylmethyl)-4-(4-methoxy-phenyl)-4H-[1,2,4]triazol-3-ylsulfanyl]-acetamide] | – |
| – | – | 4.23 ± 0.08 | 59 µM | Cc1cc(C)nc(SCc2nnc(SCC(=O)Nc3ccc(C)c(C)c3)n2-c2ccc(Cl)cc2)n1 [Compound 44, 2-[4-(4-Chloro-phenyl)-5-(4,6-dimethyl-pyrimidin-2-ylsulfanylmethyl)-4H-[1,2,4]triazol-3-ylsulfanyl]-N-(3,4-dimethyl-phenyl)-acetamide] | – |
| – | – | 4.62 ± 0.03 | 24 µM | Cc1cc(C)nc(SCc2nnc(SCCC(=O)Nc3ccc(C)c(C)c3)n2Cc2ccco2)n1 [Compound 45, N-(3,4-Dimethyl-phenyl)-3-[5-(4,6-dimethyl-pyrimidin-2-ylsulfanylmethyl)-4-furan-2-ylmethyl-4H-[1,2,4]triazol-3-ylsulfanyl]-propionamide] | – |
| – | – | 5.01 ± 0.03 | 10 µM | C=CCn1c(CSc2nc(C)cc(C)n2)nnc1SCC(=O)Nc1ccc(C(C)C)cc1 [Compound 46, 2-[4-Allyl-5-(4,6-dimethyl-pyrimidin-2-ylsulfanylmethyl)-4H-[1,2,4]triazol-3-ylsulfanyl]-N-(4-isopropyl-phenyl)-acetamide] | – |
| – | – | 5.13 ± 0.04 | 7 µM | COCCCn1c(CSc2nc(C)cc(C)n2)nnc1SCC(=O)Nc1ccc(C(C)C)cc1 [Compound 47, 2-[5-(4,6-Dimethyl-pyrimidin-2-ylsulfanylmethyl)-4-(3-methoxy-propyl)-4H-[1,2,4]triazol-3-ylsulfanyl]-N-(4-isopropyl-phenyl)-acetamide] | – |
| – | – | 4.82 ± 0.02 | 15 µM | COc1ccc(-n2c(CSc3nc(C)cc(C)n3)nnc2SCC(=O)Nc2ccc(C(C)C)cc2)cc1 [Compound 48, 2-[5-(4,6-Dimethyl-pyrimidin-2-ylsulfanylmethyl)-4-(4-methoxy-phenyl)-4H-[1,2,4]triazol-3-ylsulfanyl]-N-(4-isopropyl-phenyl)-acetamide] | – |
| – | – | 4.58 ± 0.04 | 27 µM | Cc1cc(C)nc(SCc2nnc(SCC(=O)Nc3ccc(C(C)C)cc3)n2-c2ccc(Cl)cc2)n1 [Compound 49, 2-[4-(4-Chloro-phenyl)-5-(4,6-dimethyl-pyrimidin-2-ylsulfanylmethyl)-4H-[1,2,4]triazol-3-ylsulfanyl]-N-(4-isopropyl-phenyl)-acetamide] | – |
| – | – | 5.08 ± 0.04 | 8 µM | C=CCn1c(CSc2nc(C)cc(C)n2)nnc1SCC(=O)Nc1ccc(C(F)(F)F)cc1 [Compound 50, 2-[4-Allyl-5-(4,6-dimethyl-pyrimidin-2-ylsulfanylmethyl)-4H-[1,2,4]triazol-3-ylsulfanyl]-N-(4-trifluoromethyl-phenyl)-acetamide] | – |
